Assay results as given in patent publication US7205302B2, “Heterocyclic compound derivatives and medicines” (Nippon Shinyaku Co., Ltd., priority 2001, dated 2007).
pIC50: −log10 of the molar value. Counter-ions that a name gives are not always drawn.

System: ADP-induced platelet aggregation in human PRP
Test: Human platelet aggregation inhibition test
Type: cell-based
Details: ADP 1×10^−5 M
Method: Human Platelet Aggregation Inhibition Test
Blood collected from healthy human volunteers into aqueous trisodium citrate solution was centrifuged at 200×g for 10 minutes and the upper layer was recovered to obtain platelet-rich plasma (PRP). The residual blood containing trisodium citrate added therein was centrifuged at 1500×g for 10 minutes and the supernatant was collected as platelet-poor plasma (PPP). The number of platelets in the PRP was adjusted to about 300,000/μl by PPP. Platelet aggregation was measured by an aggregometer. 180 μl of PRP was added to cuvettes and incubated at 37° C. for one minute, and then 10 μl of test compound solution (prepared by dissolving a test compound with a 1.5-fold mole of a sodium hydroxide solution and diluting with water) was added and the mixture was further incubated for 2 minutes. Then, 10 μl of aqueous adenosine diphosphate (ADP) solution was added to adjust the final concentration as 1×10^−5 M and platelet aggregation was induced and observed for 7 minutes. Inhibition percentage of aggregation was calculated from the percentage of aggregation upon the addition of the test compound to the percentage of aggregation upon the addition of water in place of the test compound solution (control).

| Structure (SMILES) | pIC50 |
| --- | --- |
| CC(C)N(CCCCSCC(=O)O)c1cnc(-c2ccccc2)c(-c2ccccc2)n1 [Example 78, 2-{4-[N-(5,6-diphenylpyrazin-2-yl)-N-isopropylamino]butylthio]acetic acid sodium salt] | 6.52 |
| Cc1ccc(-c2cnc(N(C)CCCCOCC(=O)O)nc2-c2ccc(C)cc2)cc1 [Example 75, 2-{4-[N-(4,5-di-p-tolylpyrimidin-2-yl)-N-methylamino]butyloxy}acetic acid] | 6.70 |

System: not given
Test: not given
Details: not given

| Structure (SMILES) | melting point |
| --- | --- |
| O=C(O)COCCCC1CCCN1c1cnc(-c2ccccc2)c(-c2ccccc2)n1 (racemic) [Example 55, (±)-2-{3-[1-(5,6-diphenylpyrazin-2-yl)pyrrolidin-2-yl]propyloxy}acetic acid] | 137 to 139 °C |
| CC(C)N(CCCCOCC(=O)O)c1nc(-c2ccccc2)c(-c2ccccc2)nc1Cl [Example 47, 2-{4-[N-(3-chloro-5,6-diphenylpyrazin-2-yl)-N-isopropylamino]butyloxy}acetic acid] | 136 to 138 °C |
| CC(C)N(CCCCOCC(=O)O)c1nnc(-c2ccccc2)c(-c2ccccc2)n1 [Example 49, 2-{4-[N-(5,6-diphenyl-1,2,4-triazin-3-yl)-N-isopropylamino]butyloxy}acetic acid] | 128 to 130 °C |
| CN(CCCCOCC(=O)O)c1nnc(-c2ccccc2)c(-c2ccccc2)n1 [Example 56, 2-{4-[N-(5,6-diphenyl-1,2,4-triazin-3-yl)-N-methylamino]butyloxy}acetic acid] | 108 to 110 °C |
| O=C(O)COCCCCC1CCCN1c1cnc(-c2ccccc2)c(-c2ccccc2)n1 (racemic) [Example 57, (±)-2-{4-[1-(5,6-diphenylpyrazin-2-yl)pyrrolidin-2-yl]butyloxy}acetic acid] | 138 to 140 °C |
| Cc1ccc(-c2ncc(N(CCCCOCC(=O)O)C(C)C)nc2-c2ccc(C)cc2)cc1 [Example 45, 2-{4-[N-(5,6-di-p-tolylpyrazin-2-yl)-N-isopropylamino]butyloxy}acetic acid] | 155 to 156 °C |
| Cc1ccc(-c2ncc(N(C)CCCCOCC(=O)O)nc2-c2ccc(C)cc2)cc1 [Example 50, 2-{4-[N-(5,6-di-p-tolylpyrazin-2-yl)-N-methylamino]butyloxy}acetic acid] | 161 to 162 °C |
| O=C(O)COCCCCN(c1cnc(-c2ccccc2)c(-c2ccccc2)n1)C1CCCC1 [Example 43, 2-{4-[N-(5,6-diphenylpyrazin-2-yl)-N-cyclopentylamino]butyloxy}acetic acid] | 101 to 103 °C |
| CN(CCCCOCC(=O)O)c1cnc(-c2ccc(F)cc2)c(-c2ccc(F)cc2)n1 [Example 52, 2-[4-{N-[5,6-bis(4-fluorophenyl)pyrazin-2-yl]-N-methylamino}butyloxy]acetic acid] | 116 to 118 °C |
| O=C(O)COCCCCN(c1cnc(-c2ccccc2)c(-c2ccccc2)n1)C1CCCCC1 [Example 44, 2-{4-[N-(5,6-diphenylpyrazin-2-yl)-N-cyclohexylamino]butyloxy}acetic acid] | 130 to 131 °C |
| O=C(O)COCCC1CCN(c2cnc(-c3ccccc3)c(-c3ccccc3)n2)CC1 [Example 54, 2-{2-[1-(5,6-diphenylpyrazin-2-yl)piperidin-4-yl]ethoxy}acetic acid] | 173 to 174 °C |
| COc1ccc(-c2ncc(N(C)CCCCOCC(=O)O)nc2-c2ccc(OC)cc2)cc1 [Example 51, 2-[4-{N-[5,6-bis(4-methoxyphenyl)pyrazin-2-yl]-N-methylamino}butyloxy]acetic acid] | 128 to 130 °C |

The remaining lines, values ahead:

| melting point | Structure (SMILES) |
| --- | --- |
| 182 to 184 °C | CN(c1cnc(-c2ccccc2)c(-c2ccccc2)n1)C1CCc2c(OCC(=O)O)cccc21 (stereo not drawn) [Example 62, 4-(carboxymethoxy)-1-[N-(5,6-diphenylpyrazin-2-yl)-N-methylamino]indane] |
| 158 to 159 °C | CN(C[C@H](O)c1cccc(OCC(=O)O)c1)c1cnc(-c2ccccc2)c(-c2ccccc2)n1 [Example 59, (R)-(+)-2-[3-{2-[N-(5,6-diphenylpyrazin-2-yl)-N-methylamino]-1-hydroxyethyl}phenoxy]acetic acid] |
| 148 to 150 °C | CN(C/C=C\COCC(=O)O)c1cnc(-c2ccccc2)c(-c2ccccc2)n1 [Example 71, 2-{4-[N-(5,6-diphenylpyrazin-2-yl)-N-methylamino]-(Z)-2-buten-1-yloxy]acetic acid] |
| 123 to 125 °C | O=C(O)COCCCCS(=O)(=O)c1cnc(-c2ccccc2)c(-c2ccccc2)n1 [Example 82, 2-[4-(5,6-diphenylpyrazin-2-sulfonyl)butyloxy]acetic acid] |
| 128 to 130 °C | CN(C/C=C/COCC(=O)O)c1cnc(-c2ccccc2)c(-c2ccccc2)n1 [Example 72, 2-{4-[N-(5,6-diphenylpyrazin-2-yl)-N-methylamino]-(E)-2-buten-1-yloxy]acetic acid] |
| 159 to 160 °C | CN(CCCCCC(=O)O)c1cnc(-c2ccccc2)c(-c2ccccc2)n1 [Example 68, 6-[N-(5,6-diphenylpyrazin-2-yl)-N-methylamino]hexanoic acid] |
| 114 to 118 °C | CN(CCCCCCC(=O)O)c1cnc(-c2ccccc2)c(-c2ccccc2)n1 [Example 65, 7-[N-(5,6-diphenylpyrazin-2-yl)-N-methylamino]heptanoic acid] |
| 174 to 176 °C | CN(CCc1cccc(OCC(=O)O)c1)c1cnc(-c2ccccc2)c(-c2ccccc2)n1 [Example 61, 2-[3-{2-[N-(5,6-diphenylpyrazin-2-yl)-N-methylamino]ethyl}phenoxy]acetic acid] |
| 212 to 213 °C | CN(CC1CCc2c(cccc2OCC(=O)O)C1)c1cnc(-c2ccccc2)c(-c2ccccc2)n1 (stereo not drawn) [Example 77, 5-(carboxymethoxy)-2-{[N-(5,6-diphenylpyrazin-2-yl)-N-methylamino]methyl}-1,2,3,4-tetrahydronaphthalene] |
| 117 to 120 °C (dec.) | CC(C)N(CCCC[S+]([O-])CC(=O)O)c1cnc(-c2ccccc2)c(-c2ccccc2)n1 (stereo not drawn) [Example 79, 2-{4-[N-(5,6-diphenylpyrazin-2-yl)-N-isopropylamino]butylsulfinyl}acetic acid] |
| 183 to 185 °C | CC(C)N(CCCCS(=O)(=O)CC(=O)O)c1cnc(-c2ccccc2)c(-c2ccccc2)n1 [Example 80, 2-{4-[N-(5,6-diphenylpyrazin-2-yl)-N-isopropylamino]butylsulfonyl}acetic acid] |
| 139 to 140 °C | O=C(O)COCCC1CCCN(c2cnc(-c3ccccc3)c(-c3ccccc3)n2)C1 (racemic) [Example 58, (±)-2-{2-[1-(5,6-diphenylpyrazin-2-yl)piperidin-3-yl]ethoxy}acetic acid] |
| 86 to 88 °C | O=C(O)COCCCCSc1cnc(-c2ccccc2)c(-c2ccccc2)n1 [Example 76, 2-{4-[(5,6-diphenylpyrazin-2-yl)thio]butyloxy}acetic acid] |
| 103 to 105 °C | CN(CCCCCCCCC(=O)O)c1cnc(-c2ccccc2)c(-c2ccccc2)n1 [Example 67, 9-[N-(5,6-diphenylpyrazin-2-yl)-N-methylamino]nonanoic acid] |
| 116 to 117 °C | CN(CCCCCCCC(=O)O)c1cnc(-c2ccccc2)c(-c2ccccc2)n1 [Example 66, 8-[N-(5,6-diphenylpyrazin-2-yl)-N-methylamino]octanoic acid] |

System: ADP-induced platelet aggregation in monkey PRP
Test: Ex vivo platelet aggregation inhibition test in monkeys
Design: species or system cynomolgus monkeys (Macaca fascicularis)
Details: Macaca fascicularis, Platelet; oral 0.3 mg/kg, 2 h after administration; read-out: Inhibition percentage of platelet aggregation in monkeys
Method: Ex Vivo Platelet Aggregation Inhibition Test in Monkeys
The compound of Example 84 was orally administered to two cynomolgus monkeys (Macaca fascicularis, male, aged 3 to 5) at a dose of 0.3 or 1 mg/kg. Before the administration or 2, 4 and 8 hours after the administration, blood (each 4.5 ml) was collected using an injection cylinder containing aqueous 3.8% citric acid solution in the amount of 1/10 of the volume of blood to be collected. Blood containing citric acid solution was centrifuged at 200×g for 10 minutes and the upper layer was collected as PRP. Furthermore, the residual blood was centrifuged at 1500×g for 10 minutes and the supernatant was collected as PPP. 190 μl of PRP was added to a cuvette and incubated at 37° C. for one minute, and then 10 μl of ADP solution (5 to 30 μM) was added to induce platelet aggregation. The percentage of platelet aggregation was measured by an aggregometer (PM8C, Mebanix, Tokyo) using PPP as the blank and inhibition percentage of platelet aggregation was determined by comparing the percentage of aggregation before administration of the compound with the percentage of aggregation after administration of the compound according to the following equation. Inhibition percentage of Platelet Aggregation (%)=100−(The percentage of Aggregation after administration of compound)/(The percentage of Aggregation before administration of compound)×100

| Structure (SMILES) | inhibition at 0.3 mg/kg |
| --- | --- |
| CC(C)N(CCCCOCC(=O)NS(C)(=O)=O)c1cnc(-c2ccccc2)c(-c2ccccc2)n1 [Example 84, 2-{4-[N-(5,6-diphenylpyrazin-2-yl)-N-isopropylamino]butyloxy}-N-(methylsulfonyl)acetamide] | 28% |

Same assay, conditions: Macaca fascicularis, Platelet; oral 0.3 mg/kg, 4 h after administration; read-out: Inhibition percentage of platelet aggregation in monkeys

| Structure (SMILES) | inhibition at 0.3 mg/kg |
| --- | --- |
| CC(C)N(CCCCOCC(=O)NS(C)(=O)=O)c1cnc(-c2ccccc2)c(-c2ccccc2)n1 [Example 84, 2-{4-[N-(5,6-diphenylpyrazin-2-yl)-N-isopropylamino]butyloxy}-N-(methylsulfonyl)acetamide] | 34% |

Same assay, conditions: Macaca fascicularis, Platelet; oral 0.3 mg/kg, 8 h after administration; read-out: Inhibition percentage of platelet aggregation in monkeys

| Structure (SMILES) | inhibition at 0.3 mg/kg |
| --- | --- |
| CC(C)N(CCCCOCC(=O)NS(C)(=O)=O)c1cnc(-c2ccccc2)c(-c2ccccc2)n1 [Example 84, 2-{4-[N-(5,6-diphenylpyrazin-2-yl)-N-isopropylamino]butyloxy}-N-(methylsulfonyl)acetamide] | 19% |

Same assay, conditions: Macaca fascicularis, Platelet; oral 1 mg/kg, 2 h after administration; read-out: Inhibition percentage of platelet aggregation in monkeys

| Structure (SMILES) | inhibition at 1 mg/kg |
| --- | --- |
| CC(C)N(CCCCOCC(=O)NS(C)(=O)=O)c1cnc(-c2ccccc2)c(-c2ccccc2)n1 [Example 84, 2-{4-[N-(5,6-diphenylpyrazin-2-yl)-N-isopropylamino]butyloxy}-N-(methylsulfonyl)acetamide] | 63% |

Same assay, conditions: Macaca fascicularis, Platelet; oral 1 mg/kg, 4 h after administration; read-out: Inhibition percentage of platelet aggregation in monkeys

| Structure (SMILES) | inhibition at 1 mg/kg |
| --- | --- |
| CC(C)N(CCCCOCC(=O)NS(C)(=O)=O)c1cnc(-c2ccccc2)c(-c2ccccc2)n1 [Example 84, 2-{4-[N-(5,6-diphenylpyrazin-2-yl)-N-isopropylamino]butyloxy}-N-(methylsulfonyl)acetamide] | 40% |

Same assay, conditions: Macaca fascicularis, Platelet; oral 1 mg/kg, 8 h after administration; read-out: Inhibition percentage of platelet aggregation in monkeys

| Structure (SMILES) | inhibition at 1 mg/kg |
| --- | --- |
| CC(C)N(CCCCOCC(=O)NS(C)(=O)=O)c1cnc(-c2ccccc2)c(-c2ccccc2)n1 [Example 84, 2-{4-[N-(5,6-diphenylpyrazin-2-yl)-N-isopropylamino]butyloxy}-N-(methylsulfonyl)acetamide] | 52% |

Same assay, conditions: oral 0.3 or 1 mg/kg, 2 to 8 hours after administration

| Structure (SMILES) | ex vivo platelet aggregation inhibition (in words) |
| --- | --- |
| CC(C)N(CCCCOCC(=O)NS(C)(=O)=O)c1cnc(-c2ccccc2)c(-c2ccccc2)n1 [Example 84, 2-{4-[N-(5,6-diphenylpyrazin-2-yl)-N-isopropylamino]butyloxy}-N-(methylsulfonyl)acetamide] | inhibits platelet aggregation persistently in a dose-dependent manner |
